According to patent publication US5179093A, “Quinoline-diones” (Schering Corporation, priority 1991, dated 1993):
Values after ≈ are worked out from the molar mass of the structure shown.

Columns and labels:
HSV-2, strain MS [1] = experiment: Therapeutic guinea pig model of HSV infection (genital lesions); assay type: in vivo
Description: The in vivo assessment of anti-HSV efficacy was determined in the prophylactic guinea pig model of HSV infection described by Stanberry et al (1982) The Journal of Infectious Diseases-vol. 146, No. 3, pages 397-404, which is hereby incorporated by reference. Dosing of guinea pigs was comprised of an initial treatment with test compound given 24 hours prior to virus infection and subsequent administration of the compound every eight hours (T.I.D.) for a total of 10 days. Test compounds were administered subcutaneously in 0.5% buffered methyl cellulose at a dose of 60 mg per kg body weight of the animal. Animals were monitored daily for the development of genital lesions and neurological symptomology, both of which were recorded and compared to the results obtained with parallel groups which received placebo or acyclovir treatment. Efficacy was evaluated for each compound by scoring the ability of the compound to ameliorate genital lesions produced by infection with HSV-2, strain MS, expressed as Activity Coefficients. The Activity Coefficients. were calculated as follows: The ability of a test compound to ameliorate lesions was plotted graphically with the number of days being on one axis, and the number of lesions being on the other axis. The area under the resultant curve was put in the numerator of a fraction with the denominator either being the area under a similar curve where placebo was employed(EXP/PL), or the area under the curve where acyclovir was employed (EXP/ACV). Thus (Exp/PL) is the ratio of test compound to placebo. (Exp/ACV) is the ratio of test compound to acyclovir. […] In the therapeutic guinea pig model, dosing of guinea pigs started 24 hours after they were infected with the virus. Subsequent administration of the test compound was done every eight hours for a total of ten days. Activity coefficients were calculated in the same manner as described for the prophylactic guinea pig model above.

HSV-2 (strain MS) = experiment: Transient expression of beta galactosidase in transfected HeLa cells superinfected with HSV-2 (HSV-β-GAL assay); assay type: cell-based; conditions: Human alphaherpesvirus 2, plasmid pON 245^ori-, moi=5 pfu/cell, 24 hours, read-out: ANTI-HSV ACTIVITY HSV-β-GAL ASSAY IC50
Description: HeLa and Vero cell cultures were maintained in Eagles Minimal Essential Medium (EMEM) which was supplemented with glutamine, penicillin, streptomycin and 10% fetal calf serum (10% EMEM). Stock cultures of HSV-2 (strain MS available from ATCC VR-540) were grown in and harvested from Vero cells. Viral stocks were titered in Vero cells according to established procedures.
Plasmid pON 245^ori- contains the promoter of the HSV-1 thymidine kinase (tk) gene located immediately 5' of the E. coli lac Z gene. In this arrangement, the tk promoter controls transcription from the bacterial gene in transient expression assays. Additionally, an SV40 polyadenylation signal is present at the 3' end of the lac Z gene to allow for the efficient translation of the mRNA in eucaryotic cells. The expression of beta galactosidase in a transient assay using pON 245^ori- is dependent upon superinfection of the transfected cells with HSV. […] For example see U.S. application Ser. No. 07/435,491 filed Sep. 5, 1989, the disclosure of which is incorporated herein by reference thereto.
HeLa cells were seeded into 96 well microtiter plates and allowed to grow to 80% confluency (approximately 35,000 cells/well). One half microgram of plasmid pON 245^ori- DNA was introduced into the cells of each well by the […] precipitation technique (Grahman and Van der Eb, 1973). Four to six hours later, the cells were rinsed with hank's Balanced Salt Solution (HBSS), overlaid with 10% EMEM and incubated at 37° C. At 24 hrs post-transfection, cells were rinsed, overlaid with 10% EMEM again and re-incubated at 37° C. At 48 hrs post-transfection, cells were rinsed and overlaid with either EMEM containing 2% fetal calf serum (2% EMEM), 2% EMEM containing HSV-2 (strain MS, Multiplicity of Infection [moi]=5 pfu/cell) or 2% EMEM containing HSV-2 and the appropriate concentration of Schering compound to be tested. Twenty-four hours later, the cells were harvested and assayed for beta galactosidase activity as described below.
All determinations of beta galactosidase activity were performed in 96 well microtiter plates. The intracellular level of beta galactosidase activity in each well was determined from cell lysates of the monolayer cultures. Aliquots were assayed by incubation in the presence of beta galactosidase substrate, 4-methylumbelliferyl-β-D-galactoside (MUG, 125 ug/ml, Sigma), for 2 hours. The generation of fluorescent product was quantified on a Microfluor microfluorimeter (Dynatech) after addition of 0.1M glycine, pH 10.3 (Spaete and Mocarski, 1985). The inhibitory activity of a compound was plotted versus the concentration and an IC50 value (the concentration of compound required to reduce beta glactosidase expression by 50%) was obtained for each compound tested.

[2] = Compound toxicity assay: inhibition of HeLa cell translation (^3 H-LEU assay); assay type: cell-based; conditions: human; HeLa cells, overnight (24 hours) treatment, tritiated leucine incorporation; read-out: CYTOTOXICITY ^3 H--LEU ASSAY IC50
Description: HeLa cells were treated with inhibitory compound for 24 hours, after which levels of translational activity were assayed.
For assay of translational activity, HeLa cultures were grown to 80% confluency in 96 well microtiter plates, treated with appropriate concentrations of compound in 2% EMEM during an overnight incubation at 37° C., then rinsed with HBSS and overlaid with […] of 2% EMEM containing 8 uCi of tritiated leucine (^3 H-LEU, 141 Ci/mMol, Amersham Corp., Arlington Heights Ill.). After 1 hr incubation at 36.5° C., the cells were rinsed twice with phosphate buffered saline (PBS) and lysed in 400 ul/well of 1×PBS, 0.5% sodium dodecyl sulphate (SDS). After a 10 minute incubation at 36.5° C., the contents of the well were transferred to a well in a Millititer HA microfiltration plate (Millipore Corp., Bedford, MA). The TCA insoluble proteins were precipitated onto the filter disc by a 10 minute fixation with 5% TCA, followed by filtration under vacuum and three 10 minute rinses with 95% ethanol. The filters were dried at room temperature, cut from the milltitier plate and transferred to scintillation vials. TCA precipitable counts were assayed in 5 ml of Scintisol (Isolab, Akron, Ohio). The inhibitory activity of a compound was plotted versus the concentration and an IC50 value (that concentration of the compound required to decrease cellular translational activity by 50%) was derived for each compound.

HSV-2, strain MS [3] = experiment: Prophylactic guinea pig model of HSV infection (genital lesions); assay type: in vivo; conditions: 60 mpk × 3/24 hr, sc
Description: The in vivo assessment of anti-HSV efficacy was determined in the prophylactic guinea pig model of HSV infection described by Stanberry et al (1982) The Journal of Infectious Diseases-vol. 146, No. 3, pages 397-404, which is hereby incorporated by reference. Dosing of guinea pigs was comprised of an initial treatment with test compound given 24 hours prior to virus infection and subsequent administration of the compound every eight hours (T.I.D.) for a total of 10 days. Test compounds were administered subcutaneously in 0.5% buffered methyl cellulose at a dose of 60 mg per kg body weight of the animal. Animals were monitored daily for the development of genital lesions and neurological symptomology, both of which were recorded and compared to the results obtained with parallel groups which received placebo or acyclovir treatment. Efficacy was evaluated for each compound by scoring the ability of the compound to ameliorate genital lesions produced by infection with HSV-2, strain MS, expressed as Activity Coefficients. The Activity Coefficients. were calculated as follows: The ability of a test compound to ameliorate lesions was plotted graphically with the number of days being on one axis, and the number of lesions being on the other axis. […]

herpes virus = conditions: added to lidocaine or lidocaine hydrochloride; Haines et al.; cited from earlier work

IC50 (HSV-2 (strain MS)) [µg/mL]	SMILES	CC50 at 24 h [2] [µg/mL]	other results
8 (≈ 22.3 µM)	O=C1C(=CNCc2cnc[nH]2)C(=O)N(Cc2ccccc2)c2ccccc21 [EX. 41, (E,Z)-1-benzyl-3-[(1H-5-imidazolylmethyl)aminomethylene]-quinolin-2,4(1H)dione]	34 (≈ 94.9 µM)	–
10 (≈ 23 µM)	CCCCCCN1C(=O)C(=CN[C@H]2C(O)O[C@H](CO)[C@@H](O)[C@@H]2O)C(=O)c2ccccc21 (stereo partly shown) [EX. 42, (E,Z)-1-hexyl-3-(D) glucosaminomethylene-quinolin-2,4(1H)dione]	25 (≈ 57.5 µM)	–
10 (≈ 19.7 µM)	COc1ccc(OCCCOCN2C(=O)C(=CNCc3ccncc3)C(=O)c3ccccc32)c(Cl)c1 [EX. 43, (E,Z) 1-[3(2-chloro-4-methoxyphenoxy)-propyloxymethyl]-3-(4-pyridylmethylamino)methylene-quinolin-2,4(1H)dione]	30 (≈ 59.1 µM)	–
14 (≈ 60.8 µM)	CCNC=C1C(=O)c2ccccc2N(C)C1=O [EX. 44, (E,Z) 1-methyl-3-ethylaminomethylene-quinolin-2,4(1H)dione]	43 (≈ 187 µM)	–
4 (≈ 10.7 µM)	O=C1C(=CNCc2ccccc2)C(=O)N(Cc2ccccc2)c2ccsc21 [EX. 45, (E,Z) 4-benzyl-6-benzylaminomethylene-thieno[3,2-b]pyridine-5,7(4H,6H)-dione]	40 (≈ 107 µM)	Activity Coefficient (Exp/PL) (HSV-2, strain MS [1]; 30 mpk × 3/24 hr, sc, therapeutic, lesion score AUC days 1-10, ratio test compound to placebo): 0.71; Activity Coefficient (Exp/ACV) (HSV-2, strain MS [1]; 30 mpk × 3/24 hr, sc, therapeutic, lesion score AUC days 1-10, ratio to acyclovir, ACV was not efficaceous in this study): 0.93
3 (≈ 7.99 µM)	O=C1C(=CNCc2ccncc2)C(=O)N(Cc2ccccc2)c2ccsc21 [EX. 46]	23 (≈ 61.3 µM)	–

Second part, the compound before the results:

SMILES	IC50 (HSV-2 (strain MS)) [µg/mL]	CC50 at 24 h [2] [µg/mL]	other results
Nc1nc2c(ncn2COCCO)c(=O)[nH]1 [ACV, 9-[(2-hydroxyethoxy)methyl]guanine, reference compound]	–	–	efficacy of acyclovir in the therapeutic study (HSV-2, strain MS [1]; therapeutic study with Example 45): not efficaceous
O=C1C(=CNCc2ccccc2)C(=O)N(Cc2ccccc2)c2ccccc21 [EX. 23, (E,Z)1-Benzyl-3-Benzylaminomethylene-Quinolin-2,4(1H)-Dione]	5 (≈ 13.6 µM)	> 100	Activity Coefficient (Exp/ACV) (HSV-2, strain MS [3]; lesion score AUC days 1-10, ratio test compound to acyclovir): 4.05 ± 2.21; Activity Coefficient (Exp/PL) (HSV-2, strain MS [3]; lesion score AUC days 1-10, ratio test compound to placebo): 0.67 ± 0.03
CC(NCc1ccccc1)=C1C(=O)Oc2ncccc2C1=O [EX. 31, 3-[1-Benzylaminoethylidine]-2,4-dioxo-2,3-dihydro-4H-pyrido-[2,3-b]-pyran]	11 (≈ 37.4 µM)	> 100	–
CN(C)C=C1C(=O)c2cccnc2N(c2ccccc2)C1=O [EX. 32, 1-Phenyl-3-(dimethylaminomethylene)-3,4-dihydro-2H-[1,8]-naphthyridine-2,4-dione]	18 (≈ 61.4 µM)	> 100	–
C=CCNC=C1C(=O)Oc2ccccc2C1=O [EX. 34, E,Z-3-[Allylaminomethylene]-dihydrobenzo-[b]-pyran-2,4-dione]	8 (≈ 34.9 µM)	46 (≈ 201 µM)	–
CCNC=C1C(=O)c2cccnc2N(c2ccccc2)C1=O [EX. 35, 1-Phenyl-E,Z-3-[ethylaminomethylene]-3,4-dihydro-2H-[1,8]-naphthyridine-2,4-dione]	7 (≈ 23.9 µM)	> 50	–
O=C1C(=CNCc2ccccc2)C(=O)N(c2ccccc2)c2ncccc21 [EX. 36, 1-Phenyl-E,Z-3-[benzylaminomethylene]-3,4-dihydro-2H-[1,8]-naphthyridine-2,4-dione]	22 (≈ 61.9 µM)	42 (≈ 118 µM)	–
Cc1cccc(NC=C2C(=O)c3cccnc3N(c3ccccc3)C2=O)n1 [EX. 37, 1-Phenyl-E,Z-3-[(6-methyl-2-pyridylamino)methylene]-3,4-dihydro-2H-[1,8]-naphthyridine-2,4-dione]	22 (≈ 61.7 µM)	56 (≈ 157 µM)	–
CCCCCCCN1C(=O)C(=CNN2CCOCC2)C(=O)c2ccccc21 [EX. 39, (E,Z)-1-heptyl-3-[(4-morpholino)aminomethylene]-quinolin-2,4(1H)dione]	4 (≈ 10.8 µM)	29 (≈ 78.1 µM)	–
CCCCCCCN1C(=O)C(=CNC23CC4CC(CC(C4)C2)C3)C(=O)c2ccccc21 [EX. 40, (E,Z)-1-heptyl-3-[1-adamantylaminomethylene]-quinolin-2,4(1H)dione]	5 (≈ 11.9 µM)	33 (≈ 78.5 µM)	–
CC(C)(CO)[C@@H](O)C(=O)NCCCO [dexpanthenol]	–	–	enhancement of antiviral activity (herpes virus): significantly enhances the antiviral activity
CC(C)(CO)[C@@H](O)C(=O)NCCC(=O)O [pantothenic acid]	–	–	enhancement of antiviral activity (herpes virus): significantly enhances the antiviral activity
